In patent US9867795B2, “Nitrated lipids and methods of making and using thereof” (The UAB Research Foundation, priority 2004, dated 2018):
Like-named read-outs stand apart in the source and are kept apart here.

How the values were obtained:
[1] = target: T1, hPPARγ (Homo sapiens, UniProt P37231); assay: CV-1 PPRE×3 TK-Luciferase transient transfection assay; format: cell-based; conditions: for PPARγ-dependent reporter gene expression by LNO2 decay products, oxidized linoleic acid derivatives and •NO donors: PPARγ-transfected CV-1 cells, FIG. 8C; for activation of PPARγ reporter gene expression compared with vehicle control: 1 and 3 μM, CV-1 cells, PPRE reporter
T1 construct: For assessing full-length PPAR receptors, CV-1 cells were transiently co-transfected; expressed in transfected cells; host or cells: CV-1 cells
T1 sequence (P37231 1-505): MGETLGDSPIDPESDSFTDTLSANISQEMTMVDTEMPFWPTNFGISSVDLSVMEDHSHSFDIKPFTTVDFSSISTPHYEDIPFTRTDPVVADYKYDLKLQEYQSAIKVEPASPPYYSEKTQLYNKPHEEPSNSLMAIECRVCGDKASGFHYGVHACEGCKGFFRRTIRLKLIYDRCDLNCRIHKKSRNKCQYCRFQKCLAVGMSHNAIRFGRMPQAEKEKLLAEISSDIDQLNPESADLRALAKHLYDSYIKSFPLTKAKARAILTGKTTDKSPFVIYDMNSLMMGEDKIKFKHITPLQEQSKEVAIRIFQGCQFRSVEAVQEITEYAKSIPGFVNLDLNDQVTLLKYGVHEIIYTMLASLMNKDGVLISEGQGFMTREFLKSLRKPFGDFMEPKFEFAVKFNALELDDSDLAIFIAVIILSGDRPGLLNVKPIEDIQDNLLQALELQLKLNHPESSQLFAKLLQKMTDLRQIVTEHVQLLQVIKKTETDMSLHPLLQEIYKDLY
Source text: Cell Transient Transfection Assay. […] Then, cells were transiently co-transfected with a plasmid containing the luciferase gene under regulation by four Gal4 DNA binding elements (UASG×4 TK-Luciferase, a gift from Dr. Ronald M. Evans), in concert with plasmids containing the ligand binding domain for the different nuclear receptors fused to the Gal4 DNA binding domain. For assessing full-length PPAR receptors, CV-1 cells were transiently co-transfected with a plasmid containing the luciferase gene under the control of three tandem PPAR response elements (PPRE) (PPRE×3 TK-Luciferase) and hPPARγ, hPPARα or hPPARδ expression plasmids, respectively. In all cases, fluorescence protein (GFP) expression plasmid was co-transfected as the control for the transfection efficiency. Twenty-four hours after the transfection, cells were cultured for another 24 hours in Optium-MEM (Invitrogen, Carlsbad, Calif.). Then, cells were treated with different compounds as indicated in figures for 24 hours in Optium-MEM. Reporter luciferase assay kits from Promega (Madison, Wis.) were used to measure the luciferase activity according to the manufacturer's instructions with a luminometer (Victor II, Perkin-Elmer). Luciferase activity was normalized by GFP units. Each condition was performed at least in triplicates in each experiment.
PPAR transient transfection assay. […] Twelve hours before transfection, the media was removed and antibiotic-free media was applied. Cells were transiently co-transfected with a plasmid containing the luciferase gene under the control of three tandem PPAR response elements (PPRE) (PPRE×3 TK-Luciferase) and PPARγ, PPARα or PPARδ expression plasmids, respectively. In all cases, fluorescence protein (GFP) expression plasmid was co-transfected as the control for transfection efficiency. Twenty-four hours after transfection, cells the returned to OptiMEM (Invitrogen, Carlsbad, Calif.) for 24 hr and then treated as indicated for another 24 hr. Reporter luciferase assay kits from Promega (Madison, Wis.) were used to measure the luciferase activity according to the manufacturer's instructions with a luminometer (Victor II, Perkin-Elmer). Luciferase activity was normalized by GFP units. Each condition was performed in triplicate in each experiment (n>3).

[2] = target: T2, Human PPARγ1 (GST-PPARγ) (Homo sapiens, UniProt P37231); conditions: read-out: previously reported Ki for PPARγ; cited from earlier work
T2 sequence (P37231 1-477 isoform P37231-2): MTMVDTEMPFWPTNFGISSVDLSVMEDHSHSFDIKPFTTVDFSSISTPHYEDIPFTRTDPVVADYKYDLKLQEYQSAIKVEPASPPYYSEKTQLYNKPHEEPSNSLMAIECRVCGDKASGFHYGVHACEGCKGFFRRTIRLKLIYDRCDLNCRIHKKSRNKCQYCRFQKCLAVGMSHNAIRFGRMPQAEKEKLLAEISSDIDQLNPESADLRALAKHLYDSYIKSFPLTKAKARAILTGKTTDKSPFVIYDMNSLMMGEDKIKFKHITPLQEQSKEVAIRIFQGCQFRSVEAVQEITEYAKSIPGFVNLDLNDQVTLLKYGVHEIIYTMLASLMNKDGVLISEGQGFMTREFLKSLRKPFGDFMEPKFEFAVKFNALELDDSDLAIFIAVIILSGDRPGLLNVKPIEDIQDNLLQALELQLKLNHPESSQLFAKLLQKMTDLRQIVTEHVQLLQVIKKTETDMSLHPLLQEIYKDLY

[3] = test system: human vascular endothelial cells and macrophages; assay: Whole Human Genome Oligo Array gene expression; format: cell-based; conditions: 24 hours; LNO2O 2.5 mM, linoleic acid 2.5 μM
Procedure: The nitroalkenes of the present invention also display regulatory actions towards the expression of genes related to inflammatory responses, cell growth, cell differentiation, cell signaling, cell death (apoptosis) and metabolism. For example, nitrolinoleate regulates gene expression in human vascular endothelial cells and macrophages. Cells were stimulated with vehicle and linoleic acid (2.5 μM, the latter two treatments as controls) and LNO2O ([…]) for 24 hours. The total RNA was purified with a Qiagen Kit and analyzed with a Whole Human Genome Oligo Array (G4112A, 41K Genes, Agilent). […] In contrast, the native (precursor) fatty acid, linoleic acid, only regulates 14 genes, with an up-regulation of 5 genes and the down-regulation of 9 genes.

[4] = test system: 3T3-L1 preadipocytes
[5] = test system: NF-kB pathways; assay: NF-kB pathway activity (NFkB-response element luciferase reporter, IkB degradation); format: cell-based; conditions: reporter in response to TNFa; IkB degradation in response to E. coli LPS
[6] = target: T2, Human PPARγ1 (GST-PPARγ); assay: PPARγ competition binding assay ([^3H]Rosiglitazone displacement); conditions: calculated / estimated
Procedure: PPARγ Competition Binding Assay. Human PPARγ1 cDNA was inserted into pGEX from Amersham Biosciences Corp (Piscataway, N.J.) containing the gene encoding glutathione S-transferase (GST). GST-PPARγ protein induction and receptor binding was assessed as previously described (17).

CCCCC/C=C\C=C\C(=O)CCCCCCCC(=O)O [9-oxoODE]
PPARγ-dependent reporter gene expression by LNO2 decay products, oxidized linoleic acid derivatives and •NO donors [1]: modest PPARγ activation

CCCCCC(=O)/C=C/C=C\CCCCCCCC(=O)O [13-oxoODE]
PPARγ-dependent reporter gene expression by LNO2 decay products, oxidized linoleic acid derivatives and •NO donors [1]: no effect

CCCCCCC=CC=CCCCCCCCC(=O)O [CLA1, Δ^9,11-conjugated linoleic acid]
activation of PPARγ reporter gene expression compared with vehicle control [1]: no significant activation

CCCCCC=CC=CCCCCCCCCC(=O)O [CLA2, Δ^10,12-conjugated linoleic acid]
activation of PPARγ reporter gene expression compared with vehicle control [1]: no significant activation

CCCCCCCC/C=C\CCCCCCCCOC[C@@H](O)COP(=O)(O)O [LPA-18:1, 1-O-9-(Z)-octadecenyl-2-hydroxy-sn-glycero-3-phosphate]
activation of PPARγ reporter gene expression compared with vehicle control [1]: no significant activation

CCCCCCCCCCCCCCCC(=O)OC[C@H](COP(=O)([O-])OCC[N+](C)(C)C)OC(=O)CCCCCCCC(=O)O [azPC ester, 1-Palmitoy-2-Azelaoyl-sn-Glycero-3-Phosphocholine]
activation of PPARγ reporter gene expression compared with vehicle control [1]: no significant activation

CCCCCCCCCCCCCCCCOC[C@H](COP(=O)([O-])OCC[N+](C)(C)C)OC(=O)CCCCCCCC(=O)O [azPC, 1-O-hexadecyl-2-azelaoyl-sn-glycero-3-phosphocholine]
activation of PPARγ reporter gene expression compared with vehicle control [1]: no significant activation

CCCCC/C=C\C/C=C\CCCCCCCC(=O)O [linoleic acid, reference compound]
Ki [2]: 1700 to 17000 nM | number of genes down-regulated [3]: 9 genes | number of genes regulated [3]: 14 genes | number of genes up-regulated [3]: 5 genes | expression of adipocyte markers (PPARγ2 and aP2) ([4]; immunoblot of cell lysate): not detected | activity of NF-kB pathways [5]: not | activation of PPARγ reporter gene expression compared with vehicle control [1]: no significant activation | Ki [6]: > 1000 nM

CCCCCCCCC=CCCCCCCCC(=O)O [oleic acid, 9-Octadecenoic acid, reference compound]
adipogenesis / adipocyte differentiation (morphology, oil red O) ([4]; two weeks, Rosiglitazone 3 μM, linoleic acid 10 μM, oleic acid 3 μM): did not induce adipogenesis
